Experimental data: PubChem BioAssay (NCI)
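Compound exposure: 48 hours, 5 concentrations, 96-well plates. TGI: concentration producing complete growth inhibition.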

System: SN12K1 renal
Experiment: DTP human tumour cell line panel, 48 h

CCSc1nc(COC(=O)NC)c(COC(=O)NC)n1C
TGI: > 100 µM
